Test results taken from ChEMBL document CHEMBL3046790, “Antioxidant potential and antimicrobial screening of some novel imidazole derivatives: greenway efficient one pot synthesis” (Med Chem Res, 2012).
≈ marks a conversion by molar mass, not a printed value.

Tests used:
Assay type in all cases: functional
Klebsiella pneumoniae = test: Antimicrobial activity against Klebsiella pneumoniae after 24 hr
[1] = Antioxidant activity assessed as superoxide scavenging activity at 20 uM after 15 min by PMS/NADH-NBT assay
[2] = Antioxidant activity assessed as hydroxyl radical scavenging activity at 60 uM after 60 min using thiobarbutaric acid by spectrophotometry
Candida = test: Antimicrobial activity against Candida-6 after 24 hr; conditions: Candida, 6, 24 h
[3] = Antioxidant activity assessed as superoxide scavenging activity at 100 uM after 15 min by PMS/NADH-NBT assay
[4] = Antioxidant activity assessed as superoxide scavenging activity at 40 uM after 15 min by PMS/NADH-NBT assay
[5] = Antioxidant activity assessed as hydroxyl radical scavenging activity at 40 uM after 60 min using thiobarbutaric acid by spectrophotometry
[6] = Antioxidant activity assessed as DPPH scavenging activity at 10 uM after 30 min by spectrophotometry
Escherichia coli = test: Antimicrobial activity against Escherichia coli after 24 hr
Staphylococcus aureus = test: Antimicrobial activity against Staphylococcus aureus after 24 hr
[7] = Antioxidant activity assessed as superoxide scavenging activity at 80 uM after 15 min by PMS/NADH-NBT assay
[8] = Antioxidant activity assessed as hydroxyl radical scavenging activity at 80 uM after 60 min using thiobarbutaric acid by spectrophotometry
[9] = Antioxidant activity assessed as hydroxyl radical scavenging activity at 100 uM after 60 min using thiobarbutaric acid by spectrophotometry
Aspergillus niger = test: Antimicrobial activity against Aspergillus niger after 24 hr
Aspergillus flavus = test: Antimicrobial activity against Aspergillus flavus after 24 hr
[10] = Antioxidant activity assessed as DPPH scavenging activity after 30 min by spectrophotometry
[11] = Antioxidant activity assessed as superoxide scavenging activity at 60 uM after 15 min by PMS/NADH-NBT assay
[12] = Antioxidant activity assessed as DPPH scavenging activity at 30 uM after 30 min by spectrophotometry
[13] = Antioxidant activity assessed as superoxide scavenging activity after 15 min by PMS/NADH-NBT assay
[14] = Antioxidant activity assessed as hydroxyl radical scavenging activity at 20 uM after 60 min using thiobarbutaric acid by spectrophotometry
[15] = Antioxidant activity assessed as DPPH scavenging activity at 50 uM after 30 min by spectrophotometry
[16] = Antioxidant activity assessed as DPPH scavenging activity at 20 uM after 30 min by spectrophotometry
[17] = Antioxidant activity assessed as hydroxyl radical scavenging activity after 60 min using thiobarbutaric acid by spectrophotometry
[18] = Antioxidant activity assessed as superoxide scavenging activity at 10 uM after 15 min by PMS/NADH-NBT assay
[19] = Antioxidant activity assessed as DPPH scavenging activity at 40 uM after 30 min by spectrophotometry
[20] = Antioxidant activity assessed as hydroxyl radical scavenging activity at 10 uM after 60 min using thiobarbutaric acid by spectrophotometry

Structure (SMILES)	MIC (Klebsiella pneumoniae)	MIC (Candida)	MIC (Aspergillus niger)	MIC (Aspergillus flavus)	IC50 [10]	IC50 [13]	Activity [1]	Activity [2]	Activity [3]	Activity [4]	Activity [5]	Activity [6]	Activity [7]	Activity [8]	Activity [9]	Activity [11]	Activity [12]	Activity [14]	Activity [15]	Activity [16]	other results
COc1ccc(-n2c(-c3ccc(F)cc3)nc(C)c2C)cc1	50 µg/mL (≈ 169 µM)	25 µg/mL (≈ 84.4 µM)	25 µg/mL (≈ 84.4 µM)	25 µg/mL (≈ 84.4 µM)	3.46 µg/mL (≈ 11.7 µM)	5.2 µg/mL (≈ 17.5 µM)	39%	48.3%	41%	39%	43.7%	11.1%	45.7%	50.6%	52.9%	41.9%	46.5%	48.3%	68.7%	20.2%	MIC (Escherichia coli): 25 µg/mL (≈ 84.4 µM); MIC (Staphylococcus aureus): 50 µg/mL (≈ 169 µM); Activity [10]: Dose-dependent effect; Activity [13]: Dose-dependent effect; Activity [17]: Dose-dependent effect; IC50 [17]: 3.84 µg/mL (≈ 13 µM); Activity [18]: 38.1%; Activity [19]: 64.6%; Activity [20]: 39.1%
COc1cc(OC)cc(-n2c(-c3ccccc3)nc(C)c2C)c1	100 µg/mL (≈ 324 µM)	25 µg/mL (≈ 81.1 µM)	25 µg/mL (≈ 81.1 µM)	25 µg/mL (≈ 81.1 µM)	3.8 µg/mL (≈ 12.3 µM)	4.16 µg/mL (≈ 13.5 µM)	32.4%	54%	61%	49.5%	47.1%	17.2%	59%	55.2%	58.6%	53.3%	52.5%	39.1%	55.5%	20.2%	MIC (Escherichia coli): 50 µg/mL (≈ 162 µM); MIC (Staphylococcus aureus): 25 µg/mL (≈ 81.1 µM); Activity [10]: Dose-dependent effect; Activity [13]: Dose-dependent effect; Activity [17]: Dose-dependent effect; IC50 [17]: 4.14 µg/mL (≈ 13.4 µM); Activity [18]: 13.3%; Activity [19]: 57.6%; Activity [20]: 34.5%
C[C@@H]1[C@H](O)[C@@H](C)/C=C/C=C/C=C/C=C/C=C/C=C/C=C/[C@H](O[C@@H]2O[C@H](C)[C@@H](O)[C@H](N)[C@@H]2O)C[C@@H]2O[C@](O)(C[C@@H](O)C[C@@H](O)[C@H](O)CC[C@@H](O)C[C@@H](O)CC(=O)O[C@H]1C)C[C@H](O)[C@H]2C(=O)O [AMPHOTERICIN B]		12.5 µg/mL (≈ 13.5 µM)	50 µg/mL (≈ 54.1 µM)	25 µg/mL (≈ 27.1 µM)																	

More lines, main results first:

MIC (Klebsiella pneumoniae)	MIC (Candida)	MIC (Aspergillus niger)	MIC (Aspergillus flavus)	IC50 [10]	IC50 [13]	Structure (SMILES)	Activity [1]	Activity [2]	Activity [3]	Activity [4]	Activity [5]	Activity [6]	Activity [7]	Activity [8]	Activity [9]	Activity [11]	Activity [12]	Activity [14]	Activity [15]	Activity [16]	other results
100 µg/mL (≈ 302 µM)						O=C(O)c1cn(C2CC2)c2cc(N3CCNCC3)c(F)cc2c1=O [CIPROFLOXACIN]															
100 µg/mL (≈ 359 µM)	25 µg/mL (≈ 89.8 µM)	100 µg/mL (≈ 359 µM)	25 µg/mL (≈ 89.8 µM)	3.64 µg/mL (≈ 13.1 µM)	3.74 µg/mL (≈ 13.4 µM)	COc1ccc(-n2c(-c3ccccc3)nc(C)c2C)cc1	28.1%	48.3%	59.6%	63.1%	43.7%	14.1%	68.4%	50.6%	52.9%	64.9%	59.6%	40.2%	55.5%	28.3%	MIC (Escherichia coli): 25 µg/mL (≈ 89.8 µM); MIC (Staphylococcus aureus): 50 µg/mL (≈ 180 µM); Activity [10]: Dose-dependent effect; Activity [13]: Dose-dependent effect; Activity [17]: Dose-dependent effect; IC50 [17]: 4.5 µg/mL (≈ 16.2 µM); Activity [18]: 10.5%; Activity [19]: 56.6%; Activity [20]: 35.6%
				3.1 µg/mL (≈ 17.6 µM)	2.8 µg/mL (≈ 15.9 µM)	O=C1O[C@H]([C@@H](O)CO)C(O)=C1O [ASCORBIC ACID]	48.8%	65.3%	73.5%	55.5%	48.6%	26.5%	66.5%	70.4%	78.5%	62.1%	48.8%	41.3%	75.4%	34.5%	IC50 [17]: 2.72 µg/mL (≈ 15.4 µM); Activity [18]: 32.6%; Activity [19]: 66.5%; Activity [20]: 24.3%
100 µg/mL (≈ 306 µM)	50 µg/mL (≈ 153 µM)	50 µg/mL (≈ 153 µM)	50 µg/mL (≈ 153 µM)	3.98 µg/mL (≈ 12.2 µM)	4.16 µg/mL (≈ 12.7 µM)	COc1cc(OC)cc(-n2c(-c3ccc(F)cc3)nc(C)c2C)c1	24.8%	57.5%	55.2%	55.2%	47.1%	12.1%	58.1%	55.2%	54%	60%	42.4%	40.2%	56.6%	19.2%	MIC (Escherichia coli): 50 µg/mL (≈ 153 µM); MIC (Staphylococcus aureus): 50 µg/mL (≈ 153 µM); Activity [10]: Dose-dependent effect; Activity [13]: Dose-dependent effect; Activity [17]: Dose-dependent effect; IC50 [17]: 4.18 µg/mL (≈ 12.8 µM); Activity [18]: 21.9%; Activity [19]: 57.6%; Activity [20]: 35.6%
